In PMC11653243, “Enhancing Phototoxicity in BODIPY‐Perylene Charge Transfer Dyads by Combined Iodination and Mesylation” (Chemistry (Weinheim an Der Bergstrasse, Germany), 2024):
Values joined by “and” are separate entries in the source; they are usually repeats but may differ in a detail not shown here. Identical values can stand only once.

Key:
[1] = tested on: CHO cells; assay: Cellular uptake and co-localisation by confocal microscopy; format: cell-based, Chinese Hamster; details: ER Tracker 1 µM, 45 min
Method: (§1) The intracellular uptake of the BODIPY derivatives was assessed in two mammalian cell lines, CHO (non‐cancer) and MCF‐7 (cancer). […] B2P and B2PI were studied following 4 h and 17 h incubation in MCF‐7 cells with 10 μM of each BODIPY derivative. A 17 h incubation was selected to allow for adequate cell uptake of the complex, ensuring sufficient brightness for confocal imaging while minimising cell toxicity.
(§2) Across all four compounds uptake of the BODIPYs led to extremely bright and highly punctate staining from within the cells. As all of the BODIPY‐perylene probes emit minimally from aqueous media including cell culture media (Figure S20) the bright emission is attributed to localisation of the complex to non‐aqueous domains, i. e. organelle membranes or to lipid droplets (LDs). To identify which, co‐localisation studies with targeted probes were completed. CHO and MCF‐7 cells were treated with B2P, B2PI, MB2P or MB2PI and co‐stained with specific organelle markers including LD probes; PyLa−C17Cer and BODIPY 493/503, an endoplasmic reticulum stain; ER Tracker Blue‐White and a lysosomal stain; LysoTracker Deep Red. Pyla‐C17Cer was previously published and localises in both the ER and LDs.[41] Cellular uptake of B2PI was recently reported in MCF‐7 cells, though localisation was not explored.[25]
(§3) MCF‐7 and CHO cells were treated with B2P, MB2P, B2PI or MB2PI for 17 h and co‐stained with a number of dyes for co‐staining including LysoTracker Deep Red, ER Tracker Blue/White, PyLa−C17Cer, BODIPY 493/503 and H2DCFDA. Cells were imaged in phenol red free media using a Leica DMi8 confocal microscope with a 63x or 100x oil immersion lens and a heated state at 37 °C.
(§4) Uptake in Live Cell Monolayers
(§5) CHO cells were incubated in 75cm2 cell culture flasks (Corning) with DMEM/F-12 Ham medium (Sigma-Aldrich) with L-glutamine and sodium bicarbonate supplemented with 10% fetal bovine serum (FBS) (Gibco) and 1% penicillin-streptomycin (Sigma-Aldrich). MCF-7 cells were incubated in 25cm2 cell culture flasks with RPMI-1640 medium (Sigma-Aldrich) with L-glutamine and sodium bicarbonate supplemented with 10% fetal bovine serum (FBS, Gibco) and 1% penicillin-streptomycin. Cells were incubated at 37 °C with 5% CO2 and detached from the flask at 90% confluency using a 1X Trypsin-EDTA solution (Sigma-Aldrich). Cells were counted using the EVE automated cell counter (NanoEnTek) and seeded at 1 x 10^5 cells per mL in a 4 or 8 chamber µ-slide (ibidi) for cell imaging and left for 24 h at 37 °C. Cells were rinsed with 1X PBS (Gibco) and stained with B2P or B2PI at 10 µM and MB2P or MB2PI at 30 µM for 17 h. Cells were washed twice with PBS and covered with phenol red free RPMI medium (Gibco) for imaging. […]

[2] = tested on: MCF‐7 spheroids; assay: Spheroid phototoxicity, 470 nm LED, CellTiter-Glo 3D; format: cell-based; details: MCF‐7 3D (spheroids); for IC50: Homo sapiens, MCF7, light or radiation study, 470 nm LED, 5±0.54 J/cm^2 (2.2 mW/cm^2 for 0.5 h); for Photo Index (PI), ratio of dark IC50 to light IC50: 5 J/cm^2, 470 nm LED
Method: (§6) 3D Cell Studies: Toxicity Assays
(§7) Spheroids were seeded in a clear BIOFLOAT™ round bottom 96 well plate (Sarstedt) at 2x10^4 cells per well, centrifuged using the […] for 5 minutes at 700 rpm and allowed to grow and compact for 96 hours. A 2X concentrated solution of B2P, B2PI, MB2P or MB2PI was added in a 1:1 ratio (BODIPY:media) to each well of the 96 well plate, which contained 50 µL phenol red free media, and incubated for 24 h. Prior to irradiation 90% of the media/Ru solution was removed, replaced with fresh phenol red media to dilute the remaining BODIPY (multiple dilution steps, more required for 15 µM and above), and brought to a total volume of 100 µL. Phototoxicity studies in […] spheroids were performed as per the cell monolayer protocol with an irradiation dose of 5 J/cm2 using a 470 nm LED.
(§8) Control studies with untreated spheroids confirmed 17 J/cm2 irradiation dose was toxic to spheroids, however the spheroids remained viable after 5 J/cm2 irradiation. CellTiter-Glo 3D cell viability assay (Promega) was used to assess spheroid viability and performed as per the manufacturer’s protocol, where the CellTiter-Glo 3D reagent was added to the spheroid wells

[3] = tested on: MCF‐7 spheroids; assay: Spheroid dark toxicity, CellTiter-Glo 3D; format: cell-based; details: Homo sapiens, MCF7, light or radiation study; MCF‐7 3D (spheroids); without irradiation
Method: as §6, §7, §8

[4] = tested on: MCF‐7 cells; assay: Cellular uptake and co-localisation by confocal microscopy; format: cell-based; details: ER Tracker 1 µM, 45 min
Method: as §1, §2, §3, §4, §5

Compound	Pearson Coefficient (r) with ER Tracker Blue/White [1]	IC50 [2]	Photo Index (PI), ratio of dark IC50 to light IC50 [2]	IC50 [3]	Pearson Coefficient (r) with ER Tracker Blue/White [4]
CC1=C(I)C(C)=[N+]2C1=C(c1ccccc1)c1c(C)c(-c3ccc4c5cccc6cccc(c7cccc3c74)c65)c(C)n1[B-]2(F)F [B2PI]	0.46 ± 0.04 and ~0.5	7.65 µM	5.7	44 ± 3.84 µM	0.19 ± 0.05
CC1=C(c2ccc3c4cccc5cccc(c6cccc2c63)c54)C(C)=[N+]2C1=C(c1c(C)cc(C)cc1C)c1c(C)c(I)c(C)n1[B-]2(F)F [MB2PI]	0.46 ± 0.01 and ~0.5	5.62 µM	> 8.9 and > 8	> 50 µM	0.53 ± 0.04 and ~0.5
CC1=C(c2ccc3c4cccc5cccc(c6cccc2c63)c54)C(C)=[N+]2C1=C(c1c(C)cc(C)cc1C)c1c(C)cc(C)n1[B-]2(F)F [MB2P]	0.56 ± 0.02 and ~0.5	6.26 µM	> 8	> 50 µM	0.54 ± 0.04 and ~0.5
CC1=CC(C)=[N+]2C1=C(c1ccccc1)c1c(C)c(-c3ccc4c5cccc6cccc(c7cccc3c74)c65)c(C)n1[B-]2(F)F [B2P]	0.17 ± 0.06	6.91 µM	6.6	46 ± 2.38 µM	0.14 ± 0.07
